“And” between values parts separate entries of the source, which are not always exact repeats. Equal values may be shown once.
What was measured:
CYPES = test: Postemergence foliar-applied weed control, direct-seeded rice (greenhouse); assay type: in vivo, Cyperus esculentus L. (yellow nutsedge)
Procedure: Seeds or nutlets of the desired test plant species were planted in a soil matrix prepared by mixing aloam or sandy loam soil (e.g., 28.6 percent silt, 18.8 percent clay, and 52.6 percent sand, with a pH of about 5.8 and an organic matter content of about 1.8 percent) and calcareous grit in an 80 to 20 ratio. The soil matrix was contained in plastic pots with a volume of 1 quart and a surface area of 83.6 square centimeters (cm^2). […] The plants were grown for 8-22 days in a greenhouse with an approximate 14 hour (h) photoperiod which was maintained at about 29° C. during the day and 26° C. during the night. Nutrients (Peters Excel® 15-5-15 5-Ca 2-Mg and iron chelate) were applied in the irrigation solution as needed and water was added on a regular basis. Supplemental lighting was provided with overhead metal halide 1000-Watt lamps as necessary. The plants were employed for testing when they reached the first through fourth true leaf stage.
Treatments consisted of the acid or esters of 4-amino-3-chloro-5-fluoro-6-(4-chloro-2-fluoro-3-methoxy-phenyl)pyridine-2-carboxylic acid (Compound A), each formulated as an SC (suspension concentrate), and various fungicidal components alone and in combination. Forms of compound A were applied on an acid equivalent basis.
For treatments comprised of formulated compounds, measured amounts of compounds were placed individually in 25 mL glass vials and diluted in a volume of 1.25% volume per volume (v/v) Agri-Dex® crop oil concentrate to obtain 12× stock solutions. […] Application solutions were prepared by adding an appropriate amount of each stock solution (e.g., 1 mL) and diluted to the appropriate final concentrations with the addition of […] of an aqueous mixture of 1.25% (v/v) crop oil concentrate so that the final spray solutions contained 1.25+/−0.05% (v/v) crop oil concentrate.
For treatments comprised of technical compounds, weighed amounts can be placed individually in 25 mL glass vials and dissolved in a volume of 97:3 volume per volume (v/v) acetone/dimethyl sulfoxide (DMSO) to obtain 12× stock solutions. […] When technical materials are used, the concentrated stock solutions can be added to the spray solutions so that the final acetone and DMSO concentrations of the application solutions are 16.2% and 0.5%, respectively.
As required, additional water and/or 97:3 v/v acetone/DMSO was added to individual application solutions so that the final acetone and DMSO concentrations of the application solutions being compared were 8.1% and 0.25%, respectively
All stock solutions and applications solutions were visually inspected for compound compatibility prior to application. Spray solutions were applied to the plant material with an overhead Mandel track sprayer equipped with 8002E nozzles calibrated to deliver 187 L/ha over an application area of 0.503 square meters (m^2) at a spray height of 18 to 20 inches (46 to 50 cm) above average plant canopy height. Control plants were sprayed in the same manner with the solvent blank.
The treated plants and control plants were placed in a greenhouse as described above and watered by sub-irrigation to prevent wash-off of the test compounds. After approximately 3 weeks, the condition of the test plants as compared with that of the untreated plants was determined visually and scored on a scale of 0 to 100 percent where 0 corresponds to no injury or growth inhibition and 100 corresponds to complete kill. […]

DIGSA = test: as above; assay type: in vivo, Digitaria sanguinalis (L.) Scop. (large crabgrass)

COc1c(Cl)ccc(-c2nc(C(=O)OCc3ccccc3)c(Cl)c(N)c2F)c1F [Compound A Benzyl Ester]
Visual Weed Control (%) - 21 DAA CYPES Obs (CYPES; r26 ester 8 g ae/ha alone, r27-29 phthalide 100/200/300 g ai/ha alone, r30-32 ester 8 + 100/200/300): 10%
Visual Weed Control (%)—21 DAA CYPES Obs (CYPES; r45 ester 8 g ae/ha alone, r46-48 kasugamycin 17.5/35/70 g ai/ha alone, r49-51 ester 8 + 17.5/35/70): 70%
Visual Weed Control (%)—20 DAA DIGSA Obs (DIGSA; 20 DAA, r21-23 ester 8/16/32 g ae/ha alone, r24-25 isotianil 100/200 g ai/ha alone, r26-31 ester 8/16/32 at each of 100, 200): 20% and 30% and 40%
Visual Weed Control (%)—21 DAA DIGSA Obs (DIGSA; 21 DAA, r38-39 ester 8/16 g ae/ha alone, r40 isotianil 380 g ai/ha alone, r41-42 ester 8/16 + 380): 15% and 25%
Visual Weed Control (%) - 22 DAA DIGSA Obs (DIGSA; 22 DAA, r22-24 ester 8/16/32 g ae/ha alone, r25-27 difenoconazole 50/100/200 g ai/ha alone, r28-36 ester 8/16/32 at each of 50, 100, 200): 15% and 23% and 28%
